# Results published in the supplement of paper PMC10307832.
# Compound: COC1=CC=C(C=C1)COC2=C(C=C(C=C2)CC3=CN=C(N=C3N)N)OC [GW-2580] + C[C@@H](Oc1cc(-c2cnn(C3CCNCC3)c2)cnc1N)c1c(Cl)ccc(F)c1Cl [Crizotinib] (partner 1 µM)
# Assay: relative viability (nuclei count vs DMSO), 5 days (fraction); higher = more cells survive
# Conditions: first compound 0.08 µM
# Method in brief: (§1)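 Values are medians from duplicate plates. Each reflects relative viability, defined as the nuclei count of treated wells over that of vehicle wells. Lung cancer cell lines in 1536-well plates were pin-tool dosed one day after seeding with one drug alone or with a fixed anchor-drug dose plus five library-drug doses (not always all listed) in √10 steps, then fixed, stained and imaged at 4× after 5 days.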
row,Cell Line,relative viability
1,HARA,1.15
2,NCI-H322M,0.982
3,LCLC-97TM1,0.554
4,NCI-H2009,1.05
5,A-427,0.926
6,NCI-H441,0.873
7,NCI-H661,0.983
8,NCI-H1734,0.66
9,NCI-H460,1.07
10,NCI-H2347,0.733
11,SK-LU-1,1
12,201T,1.04
13,NCI-H1915,0.896
14,HCC-827,0.874
15,LXF-289,0.846
16,NCI-H23,0.431
17,NCI-H647,1.28

row,Cell Line,relative viability
1,CAL-12T,0.632
2,NCI-H1651,0.917
3,EPLC-272H,0.831
4,NCI-H2228,0.404
5,NCI-H1792,1.03
6,NCI-H1355,1.24
7,NCI-H3122,0.286
8,NCI-H1437,1.01
9,NCI-H1755,0.852
10,NCI-H2023,0.61
11,HCC-15,0.961
12,PC-14,0.949
13,EKVX,1.09
14,LC-2-ad,0.484
15,NCI-H1563,0.836
16,NCI-H1944,1.21
17,NCI-H1975,1

# Same assay, conditions: first compound 0.8 µM
row,Cell Line,relative viability
1,HARA,1.05
2,NCI-H322M,0.969
3,NCI-H2009,1.05
4,A-427,1.07
5,NCI-H441,0.736
6,NCI-H661,1.22
7,NCI-H1734,0.74
8,NCI-H460,1.14
9,NCI-H2347,0.702
10,SK-LU-1,1.08
11,201T,1.06
12,NCI-H1915,1.14
13,HCC-827,0.933
14,LXF-289,0.818
15,NCI-H23,0.508
16,NCI-H647,1.47

row,Cell Line,relative viability
1,NCI-H1651,0.952
2,EPLC-272H,1.13
3,NCI-H2228,0.528
4,NCI-H1792,1.13
5,NCI-H1355,1.12
6,NCI-H3122,0.309
7,NCI-H1437,1.01
8,NCI-H1755,1.03
9,NCI-H2023,0.829
10,HCC-15,0.956
11,PC-14,1.04
12,EKVX,1.52
13,LC-2-ad,0.527
14,NCI-H1563,0.936
15,NCI-H1944,1.01
16,NCI-H1975,1.12

# Same assay, conditions: first compound 2.53 µM
row,Cell Line,relative viability
1,HARA,1.12
2,NCI-H322M,0.994
3,LCLC-97TM1,0.303
4,NCI-H2009,1.07
5,A-427,0.785
6,NCI-H441,0.572
7,NCI-H661,0.917
8,NCI-H1734,0.656
9,NCI-H460,0.819
10,NCI-H2347,0.603
11,SK-LU-1,0.798
12,201T,1.07
13,NCI-H1915,1.03
14,HCC-827,0.863
15,LXF-289,0.775
16,NCI-H23,0.506
17,NCI-H647,1.05

row,Cell Line,relative viability
1,CAL-12T,0.59
2,NCI-H1651,0.813
3,EPLC-272H,0.954
4,NCI-H2228,0.408
5,NCI-H1792,0.733
6,NCI-H1355,0.946
7,NCI-H3122,0.247
8,NCI-H1437,0.828
9,NCI-H1755,0.818
10,NCI-H2023,0.59
11,HCC-15,0.775
12,PC-14,0.907
13,EKVX,0.979
14,LC-2-ad,0.462
15,NCI-H1563,0.875
16,NCI-H1944,1.4
17,NCI-H1975,0.926

# Same assay, conditions: first compound 8 µM
row,Cell Line,relative viability
1,HARA,0.939
2,NCI-H322M,0.862
3,LCLC-97TM1,0.284
4,NCI-H2009,1.01
5,A-427,0.663
6,NCI-H441,0.795
7,NCI-H661,0.843
8,NCI-H1734,0.509
9,NCI-H460,0.839
10,NCI-H2347,0.736
11,SK-LU-1,1.06
12,201T,0.993
13,NCI-H1915,0.905
14,HCC-827,0.868
15,LXF-289,0.705
16,NCI-H23,0.362
17,NCI-H647,0.957

row,Cell Line,relative viability
1,CAL-12T,0.577
2,NCI-H1651,0.874
3,EPLC-272H,0.904
4,NCI-H2228,0.5
5,NCI-H1792,1.13
6,NCI-H1355,1.01
7,NCI-H3122,0.238
8,NCI-H1437,0.77
9,NCI-H1755,0.71
10,NCI-H2023,0.623
11,HCC-15,0.751
12,PC-14,0.899
13,EKVX,0.935
14,LC-2-ad,0.459
15,NCI-H1563,0.77
16,NCI-H1944,1.03
17,NCI-H1975,0.796

# Compound: COC1=CC=C(C=C1)COC2=C(C=C(C=C2)CC3=CN=C(N=C3N)N)OC [GW-2580] + C[C@]1(O)C[C@@H](c2nc(-c3ccc4ccc(-c5ccccc5)nc4c3)c3c(N)nccn32)C1 [Linsitinib] (partner 1 µM)
# Assay: as above
# Conditions: first compound 0.08 µM
# Method in brief: as §1
row,Cell Line,relative viability
1,HARA,1.09
2,NCI-H322M,1.01
3,LCLC-97TM1,0.207
4,NCI-H2009,1.14
5,A-427,1.18
6,NCI-H441,0.425
7,NCI-H661,0.493
8,NCI-H1734,0.899
9,NCI-H460,1.04
10,NCI-H2347,0.996
11,SK-LU-1,1.39
12,201T,1.06
13,NCI-H1915,1.2
14,HCC-827,0.975
15,LXF-289,1.02
16,NCI-H23,0.728
17,NCI-H647,1.39

row,Cell Line,relative viability
1,CAL-12T,0.985
2,NCI-H1651,1.06
3,EPLC-272H,1.05
4,NCI-H2228,0.88
5,NCI-H1792,0.684
6,NCI-H1355,0.823
7,NCI-H3122,0.993
8,NCI-H1437,1.08
9,NCI-H1755,1.05
10,NCI-H2023,0.643
11,HCC-15,0.989
12,PC-14,1.12
13,EKVX,0.983
14,LC-2-ad,0.817
15,NCI-H1563,1.19
16,NCI-H1944,1.32
17,NCI-H1975,1.19

# Same assay, conditions: first compound 0.8 µM
row,Cell Line,relative viability
1,HARA,1.06
2,NCI-H322M,0.958
3,NCI-H2009,1.21
4,A-427,1.16
5,NCI-H441,0.763
6,NCI-H661,0.615
7,NCI-H1734,0.839
8,NCI-H460,1.17
9,NCI-H2347,0.864
10,SK-LU-1,1.23
11,201T,1.14
12,NCI-H1915,1.13
13,HCC-827,1.03
14,LXF-289,0.992
15,NCI-H23,0.626
16,NCI-H647,1.39
17,CAL-12T,0.815

row,Cell Line,relative viability
1,NCI-H1651,1.04
2,EPLC-272H,1.38
3,NCI-H2228,0.664
4,NCI-H1792,0.569
5,NCI-H1355,0.884
6,NCI-H3122,1.13
7,NCI-H1437,1.3
8,NCI-H1755,1.17
9,NCI-H2023,0.864
10,HCC-15,1.02
11,PC-14,0.987
12,EKVX,1.18
13,LC-2-ad,0.874
14,NCI-H1563,1.27
15,NCI-H1944,1.4
16,NCI-H1975,0.931

# Same assay, conditions: first compound 2.53 µM
row,Cell Line,relative viability
1,HARA,1.08
2,NCI-H322M,0.857
3,LCLC-97TM1,0.164
4,NCI-H2009,1.18
5,A-427,1.01
6,NCI-H441,0.351
7,NCI-H661,0.419
8,NCI-H1734,0.895
9,NCI-H460,0.604
10,NCI-H2347,0.954
11,SK-LU-1,1.04
12,201T,1.14
13,NCI-H1915,1.1
14,HCC-827,1.01
15,LXF-289,0.997
16,NCI-H23,0.524
17,NCI-H647,1.09

row,Cell Line,relative viability
1,CAL-12T,0.917
2,NCI-H1651,1
3,EPLC-272H,1.24
4,NCI-H2228,0.79
5,NCI-H1792,0.263
6,NCI-H1355,0.694
7,NCI-H3122,1.16
8,NCI-H1437,0.942
9,NCI-H1755,0.955
10,NCI-H2023,0.654
11,HCC-15,0.834
12,PC-14,0.934
13,EKVX,0.884
14,LC-2-ad,0.84
15,NCI-H1563,1.1
16,NCI-H1944,1.27
17,NCI-H1975,0.89

# Same assay, conditions: first compound 8 µM
row,Cell Line,relative viability
1,HARA,0.845
2,NCI-H322M,1.05
3,LCLC-97TM1,0.177
4,NCI-H2009,1.06
5,A-427,1.08
6,NCI-H441,0.625
7,NCI-H661,0.439
8,NCI-H1734,0.911
9,NCI-H460,0.795
10,NCI-H2347,0.884
11,SK-LU-1,1.16
12,201T,1.06
13,NCI-H1915,1.11
14,HCC-827,0.961
15,LXF-289,0.858
16,NCI-H23,0.517
17,NCI-H647,1.33

row,Cell Line,relative viability
1,CAL-12T,0.762
2,NCI-H1651,0.982
3,EPLC-272H,1.14
4,NCI-H2228,0.633
5,NCI-H1792,0.592
6,NCI-H1355,0.809
7,NCI-H3122,1.05
8,NCI-H1437,0.728
9,NCI-H1755,0.761
10,NCI-H2023,0.67
11,HCC-15,0.785
12,PC-14,1.03
13,EKVX,1.04
14,LC-2-ad,0.786
15,NCI-H1563,1.08
16,NCI-H1944,1.07
17,NCI-H1975,0.875

# Compound: COC1=CC=C(C=C1)COC2=C(C=C(C=C2)CC3=CN=C(N=C3N)N)OC [GW-2580] + Cc1nc(NC(=O)N2CCC[C@H]2C(N)=O)sc1-c1ccnc(C(C)(C)C(F)(F)F)c1 [Alpelisib] (partner 2 µM)
# Assay: as above
# Conditions: first compound 0.08 µM
# Method in brief: as §1
row,Cell Line,relative viability
1,HARA,0.958
2,NCI-H322M,0.833
3,LCLC-97TM1,0.233
4,NCI-H2009,1.16
5,A-427,1.08
6,NCI-H441,0.972
7,NCI-H661,0.542
8,NCI-H1734,0.697
9,NCI-H460,0.49
10,NCI-H2347,1.02
11,SK-LU-1,0.936
12,201T,1.02
13,NCI-H1915,1.06
14,HCC-827,1.15
15,LXF-289,1.07
16,NCI-H23,0.76
17,NCI-H647,1.44

row,Cell Line,relative viability
1,CAL-12T,1.45
2,NCI-H1651,1.26
3,EPLC-272H,0.996
4,NCI-H2228,0.91
5,NCI-H1792,0.552
6,NCI-H1355,0.816
7,NCI-H3122,0.85
8,NCI-H1437,1.12
9,NCI-H1755,1.02
10,NCI-H2023,0.611
11,HCC-15,0.915
12,PC-14,0.995
13,EKVX,0.898
14,LC-2-ad,0.934
15,NCI-H1563,0.989
16,NCI-H1944,0.826
17,NCI-H1975,0.693
